Data as given in US9029359B2, “Heteroaryl Btk inhibitors” (Biogen Idec MA, Inc., priority 2009, dated 2015).

Target: T1, BTK (Homo sapiens, UniProt Q06187)
T1 construct: purchased Upstate 14-552
Assay: In vitro BTK kinase assay: BTK-POLYGAT-LS ASSAY
Format: biochemical
Conditions: ATP 10 uM
In short: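 BTK phosphorylation of polyGAT (100 nM final) with ATP at 10 μM final, 10 mM Tris-HCl pH 7.5 kinase buffer, quenched by EDTA after 30 min. Potency given as IC50.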

T1 sequence (Q06187 whole entry): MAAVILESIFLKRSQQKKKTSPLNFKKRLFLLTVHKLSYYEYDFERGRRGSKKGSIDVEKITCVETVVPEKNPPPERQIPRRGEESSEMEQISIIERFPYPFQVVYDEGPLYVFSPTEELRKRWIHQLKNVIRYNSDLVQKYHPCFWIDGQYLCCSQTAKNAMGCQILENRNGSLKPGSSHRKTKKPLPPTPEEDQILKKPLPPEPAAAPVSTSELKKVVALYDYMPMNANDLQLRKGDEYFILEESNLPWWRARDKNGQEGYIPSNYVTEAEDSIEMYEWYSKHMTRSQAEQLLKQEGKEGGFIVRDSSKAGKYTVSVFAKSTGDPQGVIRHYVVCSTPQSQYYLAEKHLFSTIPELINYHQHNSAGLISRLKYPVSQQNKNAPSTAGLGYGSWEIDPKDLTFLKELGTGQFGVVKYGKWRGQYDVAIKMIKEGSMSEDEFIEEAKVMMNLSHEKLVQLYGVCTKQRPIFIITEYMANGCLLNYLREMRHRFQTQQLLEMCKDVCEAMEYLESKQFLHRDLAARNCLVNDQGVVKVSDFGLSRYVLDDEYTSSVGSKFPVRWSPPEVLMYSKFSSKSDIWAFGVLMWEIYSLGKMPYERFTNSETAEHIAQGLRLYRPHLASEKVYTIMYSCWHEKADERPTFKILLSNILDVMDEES

An IC50 of 1000 to 10000 nM was found for `Cn1ncc2c(N3CCC[C@@H](NC(=O)[C@H](Nc4cc(F)cc(Cl)c4)C4CC4)C3)ncnc21` [Example 137, (R)-2-(3-chloro-5-fluorophenylamino)-2-cyclopropyl-N—((R)-1-(1-methyl-1H-pyrazolo[3,4-d]pyrimidin-4-yl)piperidin-3-yl)acetamide] in this work.
An IC50 of 1000 to 10000 nM was found for `COc1ccc(C)c(NCC(=O)N[C@@H]2CCCN(c3ncnc4[nH]ccc34)C2)c1` [Example 451] in this work.
An IC50 of 100 to 999 nM was found for `O=C(CNc1cc(Cl)ccc1Cl)NC1CCCN(c2ncnc3[nH]ccc23)C1` (stereo not drawn) [Example 35, (N-(1-(7H-pyrrolo[2,3-d]pyrimidin-4-yl)piperidin-3-yl)-2-(2,5-dichlorophenylamino)acetamide)] in this work.
An IC50 of 100 to 999 nM was found for `O=C(CNc1ccc(Cl)cc1Cl)N[C@@H]1CCCN(c2ncnc3[nH]ccc23)C1` [Example 317] in this work.
An IC50 of 1000 to 10000 nM was found for `O=C(N[C@@H]1CCCN(c2ncnc3[nH]ccc23)C1)[C@@H](CC1CC1)Nc1cccc(Cl)c1` [Example 391] in this work.
An IC50 of 100 to 999 nM was found for `O=C(CNc1ccccc1N1CCCCC1)N[C@@H]1CCCN(c2ncnc3[nH]ccc23)C1` [Example 290] in this work.
In the case of `O=C(N[C@@H]1CCCN(c2ncnc3[nH]ncc23)C1)[C@H](Nc1cccc(Cl)c1)C1CC1` [Example 231], the IC50 is reported as < 100 nM.
In the case of `O=C(CNc1cccc(-c2ccccc2)c1)NC1CCCN(c2ncnc3[nH]ccc23)C1` (stereo not drawn) [Example 39, (N-(1-(7H-pyrrolo[2,3-d]pyrimidin-4-yl)piperidin-3-yl)-2-(biphenyl-3-ylamino-)acetamide)], the IC50 is reported as < 100 nM.
In the case of `O=C(CNc1ccccc1S(=O)(=O)N1CCOCC1)N[C@@H]1CCCN(c2ncnc3[nH]ccc23)C1` [Example 243], the IC50 is reported as < 100 nM.
An IC50 of 100 to 999 nM was found for `Cc1ccc(Cl)c(NCC(=O)N[C@@H]2CCCN(c3ncnc4[nH]ccc34)C2)c1` [Example 313] in this work.
For `C[C@H]1CCN(c2ncnc3[nH]ncc23)C[C@@H]1NC(=O)[C@H](Nc1cc(Cl)cc(Cl)c1)C1CC1` [Example 152, (R)-2-cyclopropyl-2-(3,5-dichlorophenylamino)-N-((3R,4S)-4-methyl-1-(1H-pyrazolo[3,4-d]pyrimidin-4-yl)piperidin-3-yl)acetamide], the IC50 was < 100 nM.
With `CC(C)CN(CC(C)C)S(=O)(=O)c1ccccc1NCC(=O)N[C@@H]1CCCN(c2ncnc3[nH]ncc23)C1` [Example 186] the IC50 was < 100 nM.
For `CC[C@@H](Nc1cc(F)cc(Cl)c1)C(=O)N[C@@H]1CCCN(c2ncnc3[nH]ncc23)C1` [Example 129, (R)—N—((R)-1-(1H-pyrazolo[3,4-d]pyrimidin-4-yl)piperidin-3-yl)-2-(3-chloro-5-fluorophenylamino)butanamide], the IC50 was < 100 nM.
An IC50 of 100 to 999 nM was found for `O=C(N[C@@H]1CCCN(c2ncnc3[nH]ccc23)C1)[C@@H](CC1CC1)Nc1cc(Cl)cc(Cl)c1` [Example 132, (R)—N—((R)-1-(7H-pyrrolo[2,3-d]pyrimidin-4-yl)piperidin-3-yl)-3-cyclopropyl-2-(3,5-dichlorophenylamino)propanamide] in this work.
`O=C(CNc1ccccc1S(=O)(=O)N1CCCCC1)N[C@@H]1CCCN(c2ncnc3[nH]ccc23)C1` [Example 182] was tested, and the IC50 was < 100 nM.
An IC50 of 1000 to 10000 nM was found for `CC(C)c1ccc(NCC(=O)N[C@@H]2CCCN(c3ncnc4[nH]ccc34)C2)cc1` [Example 443] in this work.
In the case of `Cc1ccc(F)cc1NCC(=O)N[C@@H]1CCCN(c2ncnc3[nH]ccc23)C1` [Example 273], the IC50 is reported as < 100 nM.
An IC50 of 100 to 999 nM was found for `Cc1ccc(Cl)cc1NCC(=O)N[C@@H]1CCCN(c2ncnc3[nH]ccc23)C1` [Example 295] in this work.
An IC50 of 1000 to 10000 nM was found for `N#Cc1ccc(NCC(=O)N[C@@H]2CCCN(c3ncnc4[nH]ccc34)C2)cc1` [Example 412] in this work.
An IC50 of 1000 to 10000 nM was found for `O=C(CNc1cc(C(F)(F)F)ccc1F)N[C@@H]1CCCN(c2ncnc3[nH]ccc23)C1` [Example 437] in this work.
With `CC(C)(C)C1CCN(S(=O)(=O)c2ccccc2NCC(=O)N[C@@H]2CCCN(c3ncnc4[nH]ncc34)C2)CC1` [Example 256] the IC50 was < 100 nM.
For `Cc1c(Cl)cccc1NCC(=O)N[C@@H]1CCCN(c2ncnc3[nH]ccc23)C1` [Example 272], the IC50 was < 100 nM.
An IC50 of 100 to 999 nM was found for `O=C(CNc1ccc(F)c(F)c1)NC1CCCN(c2ncnc3[nH]ccc23)C1` (stereo not drawn) [Example 62, (N-(1-(7H-pyrrolo[2,3-d]pyrimidin-4-yl)piperidin-3-yl)-2-(3,4-difluorophenylamino)acetamide)] in this work.
An IC50 of 100 to 999 nM was found for `CC(C)(C)c1ccc(C(=O)NCC(=O)NC2CCCN(c3ncnc4[nH]ccc34)C2)cc1` (stereo not drawn) [Example 95, (N-(2-(1-(7H-pyrrolo[2,3-d]pyrimidin-4-yl)piperidin-3-ylamino)-2-oxoethyl)-4-tert-butylbenzamide)] in this work.
With `CC[C@H](C)[C@@H](Nc1cc(F)cc(Cl)c1)C(=O)N[C@@H]1CCCN(c2ncnc3[nH]ncc23)C1` [Example 192] the IC50 was < 100 nM.
An IC50 of 1000 to 10000 nM was found for `CCc1cccc(CC)c1NCC(=O)NC1CCCN(c2ncnc3[nH]ccc23)C1` (stereo not drawn) [Example 30, (N-(1-(7H-pyrrolo[2,3-d]pyrimidin-4-yl)piperidin-3-yl)-2-(2,6-diethylphenylamino)acetamide)] in this work.
An IC50 of 1000 to 10000 nM was found for `O=C(CNC(c1ccccc1)c1ccccc1)N[C@@H]1CCCN(c2ncnc3[nH]ccc23)C1` [Example 460] in this work.
For `CC1CCN(S(=O)(=O)c2ccccc2NCC(=O)N[C@@H]2CCCN(c3ncnc4[nH]ncc34)C2)CC1` [Example 212], the IC50 was < 100 nM.
For `CN(C1CCCCC1)S(=O)(=O)c1ccccc1NCC(=O)N[C@@H]1CCCN(c2ncnc3[nH]ncc23)C1` [Example 240], the IC50 was < 100 nM.
An IC50 of 100 to 999 nM was found for `Cc1ccc(NCC(=O)N[C@@H]2CCCN(c3ncnc4[nH]ccc34)C2)cc1Cl` [Example 287] in this work.
An IC50 of 1000 to 10000 nM was found for `O=C(CNc1cc(C(F)(F)F)ccc1N1CCCCC1)N[C@@H]1CCCN(c2ncnc3[nH]ccc23)C1` [Example 423] in this work.
An IC50 of 100 to 999 nM was found for `Cc1c(Cl)cccc1NCC(=O)NC1CCCN(c2ncnc3[nH]ccc23)C1` (stereo not drawn) [Example 52, (N-(1-(7H-pyrrolo[2,3-d]pyrimidin-4-yl)piperidin-3-yl)-2-(3-chloro-2-methylphenylamino)acetamide)] in this work.
An IC50 of 100 to 999 nM was found for `CC(C)Oc1ccccc1NCC(=O)N[C@@H]1CCCN(c2ncnc3[nH]ncc23)C1` [Example 367] in this work.
An IC50 of 1000 to 10000 nM was found for `O=C(CNc1ccc(Cl)cc1F)N[C@@H]1CCCN(c2ncnc3[nH]ccc23)C1` [Example 418] in this work.
An IC50 of 1000 to 10000 nM was found for `O=C(CNc1cccc2cccnc12)NC1CCCN(c2ncnc3[nH]ccc23)C1` (stereo not drawn) [Example 81, (N-(1-(7H-pyrrolo[2,3-d]pyrimidin-4-yl)piperidin-3-yl)-2-(quinolin-8-ylamino)acetamide)] in this work.
In the case of `O=C(CNc1ccccc1S(=O)(=O)c1ccccc1)N[C@@H]1CCCN(c2ncnc3[nH]ccc23)C1` [Example 173], the IC50 is reported as < 100 nM.
In the case of `O=C(CNc1cc(Cl)cc(OC(F)(F)F)c1)N[C@@H]1CCCN(c2ncnc3[nH]ccc23)C1` [Example 383], the IC50 is reported as < 100 nM.
`O=C(CNc1ccccc1S(=O)(=O)c1ccccc1)N[C@@H]1CCCN(c2ncnc3[nH]ncc23)C1` [Example 163] was tested, and the IC50 was < 100 nM.
`CC1CC(C)CN(S(=O)(=O)c2ccccc2NCC(=O)N[C@@H]2CCCN(c3ncnc4[nH]ncc34)C2)C1` (stereo partly drawn) [Example 224] was tested, and the IC50 was < 100 nM.
In the case of `NS(=O)(=O)c1cccc(NCC(=O)NC2CCCN(c3ncnc4[nH]ccc34)C2)c1` (stereo not drawn) [Example 26, (N-(1-(7H-pyrrolo[2,3-d]pyrimidin-4-yl)piperidin-3-yl)-2-(3-sulfamoylphenylamino)acetamide)], the IC50 is reported as > 10000 nM.
An IC50 of 1000 to 10000 nM was found for `O=C(CNC(Cc1ccccc1)c1ccccc1)N[C@@H]1CCCN(c2ncnc3[nH]ccc23)C1` (stereo partly drawn) [Example 431] in this work.
An IC50 of 100 to 999 nM was found for `COc1ccccc1NCC(=O)N[C@@H]1CCCN(c2ncnc3[nH]ccc23)C1` [Example 309] in this work.
An IC50 of 100 to 999 nM was found for `O=C(CNc1ccc(F)c(F)c1F)N[C@@H]1CCCN(c2ncnc3[nH]ccc23)C1` [Example 445] in this work.
An IC50 of 1000 to 10000 nM was found for `O=C(N[C@@H]1CCCN(c2ncnc3[nH]ccc23)C1)C(Nc1ccccc1)C(F)(F)F` (stereo partly drawn) [Example 449] in this work.
An IC50 of 1000 to 10000 nM was found for `O=C(CNc1cccc([N+](=O)[O-])c1)N[C@@H]1CCCN(c2ncnc3[nH]ccc23)C1` [Example 432] in this work.
With `CC(O)c1cccc(NCC(=O)NC2CCCN(c3ncnc4[nH]ccc34)C2)c1` (stereo not drawn) [Example 341] the IC50 was > 10000 nM.
In the case of `O=C(CNc1cccc(Br)c1)NC1CCCN(c2ncnc3[nH]ccc23)C1` (stereo not drawn) [Example 40, (N-(1-(7H-pyrrolo[2,3-d]pyrimidin-4-yl)piperidin-3-yl)-2-(3-bromophenylamino)acetamide)], the IC50 is reported as < 100 nM.
An IC50 of 1000 to 10000 nM was found for `Cc1cccc(C)c1NCC(=O)N[C@@H]1CCCN(c2ncnc3[nH]ccc23)C1` [Example 421] in this work.
In the case of `CCC[C@@H](Nc1cc(F)cc(Cl)c1)C(=O)N[C@@H]1CCCN(c2ncnc3[nH]ccc23)C1` [Example 197], the IC50 is reported as < 100 nM.
In the case of `C[C@H](O)[C@@H](Nc1cc(Cl)cc(Cl)c1)C(=O)N[C@@H]1CCCN(c2ncnc3[nH]ncc23)C1` [Example 165], the IC50 is reported as < 100 nM.
An IC50 of 100 to 999 nM was found for `CCOc1cccc(NCC(=O)N[C@@H]2CCCN(c3ncnc4[nH]ccc34)C2)c1` [Example 316] in this work.
In the case of `CC[C@@H](Nc1cc(F)cc(Cl)c1)C(=O)N[C@H]1CN(c2ncnc3[nH]ncc23)CC[C@@H]1C` [Example 154], the IC50 is reported as < 100 nM.
For `CC(C)CCOc1cccc(NCC(=O)N[C@@H]2CCCN(c3ncnc4[nH]ccc34)C2)c1` [Example 283], the IC50 was < 100 nM.
An IC50 of 100 to 999 nM was found for `O=C(CNc1ccccc1OCC(F)(F)F)N[C@@H]1CCCN(c2ncnc3[nH]ccc23)C1` [Example 277] in this work.
An IC50 of 100 to 999 nM was found for `CC(C)(C)Oc1ccccc1NCC(=O)N[C@@H]1CCCN(c2ncnc3[nH]ccc23)C1` [Example 384] in this work.
`O=C(CNc1ccccc1OC1CCCCC1)N[C@@H]1CCCN(c2ncnc3[nH]ccc23)C1` [Example 266] was tested, and the IC50 was < 100 nM.
For `O=C(CNc1ccccc1S(=O)(=O)c1cccc(C(F)(F)F)c1)N[C@@H]1CCCN(c2ncnc3[nH]ncc23)C1` [Example 187], the IC50 was < 100 nM.
With `O=C(CNC(=O)N1CCCCC1)NC1CCCN(c2ncnc3[nH]ccc23)C1` (stereo not drawn) [Example 330] the IC50 was > 10000 nM.
An IC50 of 100 to 999 nM was found for `CC1CN(S(=O)(=O)c2ccccc2NCC(=O)N[C@@H]2CCCN(c3ncnc4[nH]ncc34)C2)CC(C)O1` (stereo partly drawn) [Example 372] in this work.
For `O=C(CNc1ccccc1Oc1ccccc1)N[C@@H]1CCCN(c2ncnc3[nH]ccc23)C1` [Example 241], the IC50 was < 100 nM.
